This test concerns scalp of dandruff and non-dandruff subjects. The test can be described thus: Metabolite expression profiling (LC/MS/MS, GC/MS/MS) of scalp D-Squame tape strip extracts: non-dandruff, dandruff baseline, dandruff after 3 weeks anti-dandruff shampoo. It counts as in vivo, human. The following applies: for Mean Values WEEK 3 TRT Sel: dandruff subjects after 3 weeks treatment with Sel shampoo; for Mean Values WEEK 3 TRT Sel / Mean Values WEEK 3 TRT ZPT: metabolite level in scalp tape strip extract; for Mean Values WEEK 3 TRT ZPT: dandruff subjects after 3 weeks treatment with ZPT shampoo; for Fold Change Wk 3 Sel vs Dandruff Baseline / Fold Change Wk 3 ZPT vs Dandruff Baseline / Fold Change Wk 3 ZPT vs Non-Dan Baseline / Fold Change Wk 3 Sel vs Non-Dan Baseline: metabolite level in scalp tape strips; for Fold Change Wk 3 Sel vs Dandruff Baseline / Fold Change Wk 3 ZPT vs Dandruff Baseline: standardized to soluble protein; for Fold Change Wk 3 Sel vs Dandruff Baseline: dandruff subjects after 3 weeks 1% selenium sulfide shampoo vs own baseline; for Fold Change Wk 3 ZPT vs Dandruff Baseline: dandruff subjects after 3 weeks 1% zinc pyrithione shampoo vs own baseline; for Fold Change Wk 3 ZPT vs Non-Dan Baseline: dandruff subjects after 3 weeks 1% ZPT shampoo vs non-dandruff subjects; for Fold Change Wk 3 Sel vs Non-Dan Baseline: dandruff subjects after 3 weeks 1% selenium sulfide shampoo vs non-dandruff subjects; for reduction / decrease of metabolite level vs dandruff baseline: after three weeks ZPT shampoo; for decrease of metabolite level vs dandruff baseline: after three weeks selenium sulfide shampoo. The text has this:
In an embodiment, the use of an adhesive device can be used to achieve such sampling. In preparation for such a sampling study for a dandruff sampling, at a baseline visit, a qualified screening grader will complete adherent scalp flaking score (ASFS) grading for each subject and the highest flaking octant will be identified for tape strip sampling. The highest flaking octant will be sampled at baseline and at various time points during and after treatment with product. Tape strips samples will be collected from each subject at each time point (e.g., baseline and week 3).
The tape strip sampling procedure is repeated additional times, as needed, at the same site placing each D-Squame® tape disc on top of the prior sampled area. The D-Squame® tapes after sample collection are placed into the appropriately labeled wells in a labeled plate.
Following the sampling, an extraction and quantitation procedure is conducted. In an embodiment of the present invention, quantitation of small molecules from extracts of D-Squame® Tape Samples can be conducted via analysis by either LC/MS/MS or GC/MS/MS. In this embodiment of the present invention, the sample extraction in preparation for Metabolite expression profiling technology was performed.
The D-Squame® tape sample plates are removed from −80° C. freezer where they are stored following sample collection, and placed on dry ice. The tape strips are inserted into pre-labeled polypropylene collection tubes, adhesive side facing inward. Extraction buffer containing methanol and water is added to each collection tube and then extracted on ice using sonication for 15 min. If necessary, additional tapes are placed in the collection tube containing the extract solution and the extraction process is repeated as a means of concentrating the sample. Each extract solution is isolated from the tape strip and an aliquot of each sample is placed into a pre-labeled polypropylene collection tubes and frozen at −80° C. for metabolite expression profiling analysis. A separate aliquot is specified for soluble protein analysis using a BCA™ Protein Assay Kit. For this analysis, the aliquot consisting of methanol and water is taken to dryness under a gentle stream of nitrogen. The sample is resuspended in an appropriate aqueous buffer (e.g., PBS/SDS (1× PBS+0.2% SDS) and analyzed for soluble protein.
The extracts are analyzed by GC/MS/MS and LC/MS/MS in positive and negative ion mode. Chromatographic separation followed by full scan mass spectra and MS/MS spectra is carried out to record and quantify all detectable ions present in the samples. Metabolites with known chemical structure can be identified by matching the ions' chromatographic retention index and mass spectra fragmentation signatures with reference library entries created from authentic standard metabolites under the identical analytical procedure as the experimental samples. Welch's Two Sample t-tests and matched-pair t-tests are used to analyze the data. […] The statistical analyses are performed on natural log-transformed data to reduce the effect of any potential outliers in the data. Welch's Two Sample t-test comparisons are made between the means of each biochemical from the various groups listed at the top of the tables and are calculated using either or both of the statistical analysis software programs: Array Studio (Omicsoft, Inc) or “R” from the Free Software Foundation, Inc.
Subjects are evaluated by a qualified grader to establish their scalp status. Dandruff subjects are identified by their level of visible flaking as assessed by a qualified grader. Non-dandruff healthy scalp subjects are evaluated at baseline to establish normalized levels of each biomarker. In this study, there are 60 non-dandruff subjects that are evaluated at baseline. […] They are evaluated at baseline, and after 3 weeks of product usage.

Each structure is given as a SMILES string. Marks after values point to notes of the source that are not given here.

Consider `CCCCCC/C=C\CCCCCCCC(=O)O` [Palmitoleate (16:1n7), Palmitoleate], for which the “Mean Values WEEK 3 TRT Sel” value came to 0.6347, the “Mean Values WEEK 3 TRT ZPT” value is listed as 0.8507, the “Fold Change Wk 3 Sel vs Dandruff Baseline” value is 0.55* fold and the “Fold Change Wk 3 ZPT vs Dandruff Baseline” value is 0.83* fold. Further, the “Fold Change Wk 3 ZPT vs Non-Dan Baseline” value is given as 0.58* fold and the “Fold Change Wk 3 Sel vs Non-Dan Baseline” value was 0.43* fold.
Take `CCCCCCCCCCCCCCCCCC(=O)NCCO` [Stearoyl ethanolamide]: the “Mean Values WEEK 3 TRT Sel” value amounted to 2.6645, the “Mean Values WEEK 3 TRT ZPT” value was 2.3466, the “Fold Change Wk 3 Sel vs Dandruff Baseline” value is on record as 5.03** fold and the “Fold Change Wk 3 ZPT vs Dandruff Baseline” value worked out at 2.94 fold. In addition, the “Fold Change Wk 3 ZPT vs Non-Dan Baseline” value was 3.88** fold and the “Fold Change Wk 3 Sel vs Non-Dan Baseline” value is listed as 4.41** fold.
On to `NC(N)=O` [Urea], for which the “Mean Values WEEK 3 TRT Sel” value stood at 2.5539, the “Mean Values WEEK 3 TRT ZPT” value came to 2.6469, the “Fold Change Wk 3 Sel vs Dandruff Baseline” value is reported as 2.81**** fold and the “Fold Change Wk 3 ZPT vs Dandruff Baseline” value is on record as 4.13 fold. The “Fold Change Wk 3 ZPT vs Non-Dan Baseline” value was 3.75 fold and the “Fold Change Wk 3 Sel vs Non-Dan Baseline” value was 3.62** fold.
For the molecule `O=c1[nH]c(=O)c2[nH]cnc2[nH]1` [Xanthine], the “reduction / decrease of metabolite level vs dandruff baseline” value is on record as 84% and the “decrease of metabolite level vs dandruff baseline” value amounted to 85%.
Regarding `CCCCCCCCCCCCCCCCCCCC(=O)O` [arachidate (20:0), arachidate], the “Mean Values WEEK 3 TRT Sel” value came out at 0.6154, the “Mean Values WEEK 3 TRT ZPT” value turned out to be 0.7662, the “Fold Change Wk 3 Sel vs Dandruff Baseline” value is 0.42* fold and the “Fold Change Wk 3 ZPT vs Dandruff Baseline” value is reported as 0.55* fold. Moreover, the “Fold Change Wk 3 ZPT vs Non-Dan Baseline” value is 0.56*** fold and the “Fold Change Wk 3 Sel vs Non-Dan Baseline” value is reported as 0.45*** fold.
Turning to `CCCCC/C=C\C/C=C\C/C=C\C/C=C\CCCC(=O)O` [arachidonate (20:4n6), arachidonate], the “reduction / decrease of metabolite level vs dandruff baseline” value was determined as 44% and the “decrease of metabolite level vs dandruff baseline” value is given as 70%.
`CCCCCCCCCCCCCCCCCCCCCC(=O)O` [behenate (22:0), behenate]: the “Fold Change Wk 3 Sel vs Dandruff Baseline” value is recorded as 0.84 fold, the “Fold Change Wk 3 ZPT vs Dandruff Baseline” value came out at 0.47 fold, the “Fold Change Wk 3 ZPT vs Non-Dan Baseline” value is 0.34* fold and the “Fold Change Wk 3 Sel vs Non-Dan Baseline” value was 0.57*** fold.
With `O=C(O)/C=C\c1cnc[nH]1` [cis-urocanate], the “Fold Change Wk 3 Sel vs Dandruff Baseline” value is recorded as 1.22 fold, the “Fold Change Wk 3 ZPT vs Dandruff Baseline” value stood at 1.19 fold, the “Fold Change Wk 3 ZPT vs Non-Dan Baseline” value was found to be 0.91 fold and the “Fold Change Wk 3 Sel vs Non-Dan Baseline” value is given as 0.99 fold.
Regarding `CCCCC/C=C\C/C=C\CCCCCCCCCC(=O)O` [dihomo-linoleate (20:2n6), dihomo-linoleate], the “Mean Values WEEK 3 TRT Sel” value is reported as 0.214, the “Mean Values WEEK 3 TRT ZPT” value was 0.3984, the “Fold Change Wk 3 Sel vs Dandruff Baseline” value is on record as 0.15* fold and the “Fold Change Wk 3 ZPT vs Dandruff Baseline” value is on record as 0.3* fold. Moreover, the “Fold Change Wk 3 ZPT vs Non-Dan Baseline” value is reported as 0.32* fold and the “Fold Change Wk 3 Sel vs Non-Dan Baseline” value was 0.17* fold.
As for `CCCCC/C=C\C/C=C\CCCCCCCCCCCC(=O)O` [docosadienoate (22:2n6), docosadienoate], the “Mean Values WEEK 3 TRT Sel” value is 0.1554, the “Mean Values WEEK 3 TRT ZPT” value is reported as 0.3022, the “Fold Change Wk 3 Sel vs Dandruff Baseline” value was 0.12* fold and the “Fold Change Wk 3 ZPT vs Dandruff Baseline” value is 0.24* fold. For the same molecule, the “Fold Change Wk 3 ZPT vs Non-Dan Baseline” value was 0.28* fold and the “Fold Change Wk 3 Sel vs Non-Dan Baseline” value is on record as 0.14* fold.
In the case of `CC/C=C\C/C=C\C/C=C\CCCCCCCCCCCC(=O)O` [docosatrienoate (22:3n3), docosatrienoate], the “Mean Values WEEK 3 TRT Sel” value came to 0.2735, the “Mean Values WEEK 3 TRT ZPT” value amounted to 0.5705, the “Fold Change Wk 3 Sel vs Dandruff Baseline” value was 0.13* fold and the “Fold Change Wk 3 ZPT vs Dandruff Baseline” value is reported as 0.26* fold. Further, the “Fold Change Wk 3 ZPT vs Non-Dan Baseline” value was found to be 0.32 fold and the “Fold Change Wk 3 Sel vs Non-Dan Baseline” value is 0.15* fold.

The values above are taken from patent publication US20140271930A1, “NONINVASIVE METHOD FOR MEASURING METABOLITES FOR SKIN HEALTH” (priority 2013, published 2014).
